For one test, the system named is P493-6 (myc "on") cells. The test can be described thus: Cell Proliferation Assay. It is filed as cell-based. The following applies: P493-6, 72 h, read-out: Cell prolif P493 72 h IC50, P493-6 cells, 72 h. An outline of the steps:
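Read-out: either Cell Titer Glo or Guava Viacount flow analysis after 72 h compound treatment of myc-on P493-6 cells (10,000/well, RPMI with 10% FBS) at 37 °C. DMSO held at 0.5% final.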

In test [1] the target is T1, recombinant form of Glutaminase 1 (GAC) (Homo sapiens, UniProt O94925).
T1 sequence (O94925 137-598 isoform O94925-3 limits assumed): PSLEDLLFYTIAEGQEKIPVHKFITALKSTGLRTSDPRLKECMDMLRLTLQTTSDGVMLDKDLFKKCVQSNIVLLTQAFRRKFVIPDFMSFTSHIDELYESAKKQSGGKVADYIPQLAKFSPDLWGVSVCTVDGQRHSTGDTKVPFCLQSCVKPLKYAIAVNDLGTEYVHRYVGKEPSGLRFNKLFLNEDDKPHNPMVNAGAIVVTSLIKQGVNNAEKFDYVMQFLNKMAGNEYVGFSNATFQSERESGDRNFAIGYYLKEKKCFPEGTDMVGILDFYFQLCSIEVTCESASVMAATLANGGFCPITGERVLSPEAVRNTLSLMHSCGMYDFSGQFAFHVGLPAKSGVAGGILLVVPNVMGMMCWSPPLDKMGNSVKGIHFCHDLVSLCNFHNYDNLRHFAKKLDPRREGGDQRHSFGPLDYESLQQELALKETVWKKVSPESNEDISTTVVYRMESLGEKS
The test can be described thus: Recombinant Enzyme Assay - Time Dependence (60 min preincubation). Type of test: biochemical. As to the method:
The enzyme/compound mix was sealed with sealing foil (USA Scientific) and allowed to incubate, with mild agitation, for 60 minutes at 20° C. Enzymatic reaction was started with the addition of 50 μL of substrate solution (50 mM Tris-HCl pH 8.0, 0.2 mM EDTA, 150 mM K2HPO4, 0.1 mg/ml BSA, 1 mM DTT, 20 mM L-glutamine, 2 mM NAD^+, and 10 ppm antifoam) and read in a Molecular Devices M5 plate reader at 20° C. The plate reader was configured to read absorbance (=340 nm) in kinetic mode for 15 minutes. Data was recorded as milli-absorbance units per minute and slopes were compared to a control compound and a DMSO-only control on the same plate. Compounds with slopes less than the DMSO control were considered inhibitors and plate variability was assessed using the control compound.

Setting [2] is: read-out: GAC Delta N2 IC50 60 min preinc.

Each structure is given as a SMILES string. Read-outs that look alike come from different tables or passages of the source.

For `CN(C)CC(=O)Nc1ccc(CC(=O)Nc2nnc(CCCCc3ccc(NC(=O)Cc4ccccc4)nn3)s2)cc1` [Compound 430], the IC50 in the test on P493-6 (myc "on") cells was found to be 27 nM; in test [1] (setting [2]), 9 nM.

On to `CC(C)(N)c1cccc(CC(=O)Nc2ccc(CCCCc3nnc(NC(=O)Cc4ccccc4)s3)nn2)c1` [Compound 633], for which the IC50 in the test on P493-6 (myc "on") cells was 130 nM; in test [1] (setting [2]) it was 7 nM.

With `CN(C)CC(=O)Nc1cccc(CC(=O)Nc2nnc(CCCCc3ccc(NC(=O)Cc4ccccc4)nn3)s2)c1` [Compound 457], the IC50 amounted to 110 nM with P493-6 (myc "on") cells and 9 nM in test [1] (setting [2]).

With `CC(C)(C)OC(=O)NCc1cccc(CC(=O)Nc2nnc(CCCCc3ccc(NC(=O)C(C)(CO)CO)nn3)s2)c1` [Compound 530], the IC50 in the test on P493-6 (myc "on") cells was determined as 280 nM; in test [1] (setting [2]) it was 55 nM.

Turning to `O=C(Cc1cccc(OCCO)c1)Nc1ccc(CCCCc2nnc(NC(=O)Cc3ccccc3)s2)nn1` [Compound 502], the IC50 is 75 nM in the test with P493-6 (myc "on") cells and 7 nM in test [1] (setting [2]).

Take `CC(C)(C)OC(=O)N1Cc2cccc(CC(=O)Nc3ccc(CCCCc4nnc(NC(=O)Cc5cccc(OC(F)(F)F)c5)s4)nn3)c2C1` [Compound 612]: the IC50 in the test with P493-6 (myc "on") cells came out at 100 nM; in test [1] (setting [2]) it was 65 nM.

Regarding `O=C(Cc1ccccc1)Nc1ccc(CCCCc2nnc(NC(=O)Cc3cc(F)cc(C(F)(F)F)c3)s2)nn1` [Compound 414], the IC50 in the test on P493-6 (myc "on") cells stood at 58 nM; in test [1] (setting [2]), 10 nM.

Turning to `COc1cc(CC(=O)Nc2nnc(CCCCc3ccc(NC(=O)Cc4ccccc4)nn3)s2)cc(OC)c1` [Compound 398], the values for the IC50 (with P493-6 (myc "on") cells; in test [1] (setting [2])) were 23 nM and 4 nM, respectively.

For the molecule `CC(C)CNC(=O)COc1cccc(CC(=O)Nc2ccc(CCCCc3nnc(NC(=O)Cc4ccccc4)s3)nn2)c1` [Compound 647], the IC50 in the test on P493-6 (myc "on") cells was 18 nM; in test [1] (setting [2]) it was 4 nM.

Consider `COc1cccc(CC(=O)Nc2nnc(CCCCc3ccc(NC(=O)Cc4ccccc4)nn3)s2)c1OC` [Compound 397], for which the IC50 with P493-6 (myc "on") cells came to 41 nM; in test [1] (setting [2]), 8 nM.

Consider `CC(C)(N)c1cccc(CC(=O)Nc2nnc(CCCCc3ccc(NC(=O)Cc4ccccc4)nn3)s2)c1` [Compound 632], for which the IC50 with P493-6 (myc "on") cells was found to be 200 nM; in test [1], 10 nM.

For `CC(O)c1cccc(CC(=O)Nc2nnc(CCCCc3ccc(NC(=O)Cc4ccccc4)nn3)s2)c1` (stereo not shown) [Compound 593], the IC50 was found to be 33 nM in the test on P493-6 (myc "on") cells and 5 nM in test [1] (setting [2]).

Consider `O=C(Cc1ccccc1)Nc1ccc(CCCCc2nnc(NC(=O)Cc3cccs3)s2)nn1` [Compound 503], for which the IC50 in the test with P493-6 (myc "on") cells turned out to be 150 nM; in test [1] (setting [2]), 8 nM.

Take `O=C(Cc1ccccc1Cl)Nc1ccc(CCCCc2nnc(NC(=O)Cc3ccccc3)s2)nn1` [Compound 521]: the IC50 in the test on P493-6 (myc "on") cells is 52 nM; in test [1] (setting [2]) it was 6 nM.

For the molecule `CC(C)(C)C(=O)NCc1cccc(CC(=O)Nc2nnc(CCCCc3ccc(NC(=O)Cc4ccccc4)nn3)s2)c1` [Compound 564], the values for the IC50 (with P493-6 (myc "on") cells; in test [1] (setting [2])) were 2 nM and 4 nM, respectively.

On to `CN1CCN(C(=O)c2cccc(CC(=O)Nc3nnc(CCCCc4ccc(NC(=O)Cc5ccccc5)nn4)s3)c2)CC1` [Compound 490], for which the IC50 in the test with P493-6 (myc "on") cells came to 250 nM; in test [1] (setting [2]) it was 11 nM.

For the molecule `O=C(Cc1ccccc1)Nc1ccc(CCCCc2nnc(NC(=O)Cc3cccc(Cn4cccn4)c3)s2)nn1` [Compound 395], the IC50 stood at 15 nM with P493-6 (myc "on") cells and 4 nM in test [1] (setting [2]).

In the case of `CCOc1cc(CC(=O)Nc2nnc(CCCCc3ccc(NC(=O)Cc4ccccc4)nn3)s2)ccc1O` [Compound 556], the figures for the IC50 (in the test with P493-6 (myc "on") cells; in test [1] (setting [2])) were 120 nM and 5 nM, respectively.

Take `O=C(Cc1ccccc1F)Nc1ccc(CCCCc2nnc(NC(=O)Cc3ccccc3)s2)nn1` [Compound 520]: the IC50 in the test with P493-6 (myc "on") cells is 56 nM; in test [1] (setting [2]), 7 nM.

In the case of `COc1cccc(C(OC(=O)CCN2CCOCC2)C(=O)Nc2nnc(CCCCc3ccc(NC(=O)Cc4ccccc4)nn3)s2)c1` (stereo not shown) [Compound 404], the IC50 with P493-6 (myc "on") cells was determined as 22 nM; in test [1] (setting [2]), 60 nM.

On to `CCNC(=O)Nc1ccc(CCCCc2nnc(NC(=O)Cc3cccc(CN)c3)s2)nn1` [Compound 421], for which the IC50 came to 160 nM in the test on P493-6 (myc "on") cells and 290 nM in test [1] (setting [2]).

Regarding `COc1ccc(CC(=O)Nc2nnc(CCCCc3ccc(NC(=O)Cc4ccccc4)nn3)s2)cc1F` [Compound 544], the figures for the IC50 (in the test with P493-6 (myc "on") cells; in test [1] (setting [2])) were 44 nM and 6 nM, respectively.

Take `CC(=O)NCc1cccc(CC(=O)Nc2nnc(CCCCc3ccc(NC(=O)Cc4ccccc4)nn3)s2)c1` [Compound 431]: the values for the IC50 (with P493-6 (myc "on") cells; in test [1] (setting [2])) were 26 nM and 7 nM, respectively.

For the molecule `O=C(Cc1ccccc1)Nc1ccc(CCCCc2nnc(NC(=O)Cc3cccc(CNC(=O)c4ccc(Br)nn4)c3)s2)nn1` [Compound 475], the IC50 in the test with P493-6 (myc "on") cells was 3 nM; in test [1] (setting [2]), 2 nM.

For `CC(C)(C)CNC(=O)Cc1cccc(CC(=O)Nc2nnc(CCCCc3ccc(NC(=O)Cc4ccccc4)nn3)s2)c1` [Compound 471], the IC50 amounted to 6 nM in the test with P493-6 (myc "on") cells and 3 nM in test [1] (setting [2]).

`CS(=O)(=O)CCCOc1cccc(CC(=O)Nc2nnc(CCCCc3ccc(NC(=O)Cc4ccccc4)nn3)s2)c1` [Compound 583]: the IC50 with P493-6 (myc "on") cells was 42 nM; in test [1] (setting [2]), 5 nM.

Turning to `CC(=O)Nc1cccc(CC(=O)Nc2nnc(CCCCc3ccc(NC(=O)Cc4ccccc4)nn3)s2)c1` [Compound 451], the IC50 in the test on P493-6 (myc "on") cells stood at 56 nM; in test [1] (setting [2]), 3 nM.

`O=C(Cc1ccccc1)Nc1ccc(CCCCc2nnc(NC(=O)Cc3cccc(OC(F)(F)F)c3)s2)nn1` [Compound 413]: the results for the IC50 (with P493-6 (myc "on") cells; in test [1] (setting [2])) were 45 nM and 7 nM, respectively.

Regarding `O=C(Cc1ccccc1Cl)Nc1ccc(CCCCc2nnc(NC(=O)Cc3ccccc3Cl)s2)nn1` [Compound 565], the IC50 in the test with P493-6 (myc "on") cells was 13 nM; in test [1] (setting [2]), 5 nM.

Turning to `O=C(Cc1ccccc1)Nc1ccc(CCCCc2nnc(NC(=O)Cc3cccc(OC(CO)CO)c3)s2)nn1` [Compound 505], the IC50 in the test with P493-6 (myc "on") cells came out at 240 nM; in test [1] (setting [2]), 8 nM.

For `Nc1ccc(CCCCc2nnc(NC(=O)Cc3cccc(CNC(=O)c4ccccc4)c3)s2)nn1` [Compound 463], the IC50 in the test with P493-6 (myc "on") cells is 960 nM; in test [1] (setting [2]), 52 nM.

As to `CC(NS(C)(=O)=O)c1cccc(CC(=O)Nc2ccc(CCCCc3nnc(NC(=O)Cc4ccccc4)s3)nn2)c1` (stereo not shown) [Compound 626], the IC50 in the test with P493-6 (myc "on") cells is 17 nM; in test [1], 4 nM.

Regarding `NCc1cccc(CC(=O)Nc2nnc(CCCCc3ccc(NC(=O)C(O)c4cccc(Cl)c4)nn3)s2)c1` (stereo not shown) [Compound 423], the IC50 in the test on P493-6 (myc "on") cells was 42 nM; in test [1] (setting [2]) it was 22 nM.

Turning to `CC(C)(C)NC(=O)Cc1cccc(CC(=O)Nc2nnc(CCCCc3ccc(NC(=O)Cc4ccccc4)nn3)s2)c1` [Compound 495], the IC50 was found to be 14 nM with P493-6 (myc "on") cells and 5 nM in test [1] (setting [2]).

For `COc1ccccc1CC(=O)Nc1nnc(CCCCc2ccc(NC(=O)Cc3ccccc3F)nn2)s1` [Compound 532], the IC50 with P493-6 (myc "on") cells was 59 nM; in test [1] (setting [2]) it was 6 nM.

In the case of `CC(=O)Nc1ccc(CCCCc2nnc(NC(=O)Cc3cccc(CNC(=O)Cc4ccccc4)c3)s2)nn1` [Compound 462], the values for the IC50 (with P493-6 (myc "on") cells; in test [1] (setting [2])) were 53 nM and 6 nM, respectively.

Consider `COC(=O)NCc1cccc(CC(=O)Nc2ccc(CCCCc3nnc(NC(=O)C(C)c4ccccc4)s3)nn2)c1` (stereo not shown) [Compound 553], for which the results for the IC50 (in the test with P493-6 (myc "on") cells; in test [1] (setting [2])) were 19 nM and 5 nM, respectively.

Take `CC(N)c1cccc(CC(=O)Nc2ccc(CCCCc3nnc(NC(=O)C(C)c4ccccc4)s3)nn2)c1` (stereo not shown) [Compound 619]: the IC50 turned out to be 150 nM in the test on P493-6 (myc "on") cells and 13 nM in test [1].
